Laboratory results taken from patent US6914045B2, “Glycopeptide antibiotics” (Wyeth Holdings Corporation, priority 2001, dated 2005).
Values after ≈ are worked out from the molar mass of the structure shown.

Key:
[1] = anatomic pathology (histopathology of heart and kidney) in mice; type: in vivo; settings: CD-1 mice, 20 mg/kg intravenously daily for 9 days, necropsy day 10, microscopic histopathology
Protocol: Samples of tissues from necropsied mice were formalin-fixed, paraffin-embedded, sectioned, stained with hematoxylin and eosin, and examined microscopically. Histopathologic findings were recorded. These findings were subjectively graded on a scale corresponding to slight, mild, moderate, marked and severe as compared to untreated controls.

Streptococcus sp. = experiment: in vitro antibacterial evaluation, MIC by broth dilution; type: cell-based; settings: broth dilution, 18 hours at 35° C.
In short: (§1)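 MIC, the lowest antibiotic concentration preventing growth, was read across 64-0.06 μg/mL with 5×10^5 CFU/mL inoculum. Method followed NCCLS M7-A2 broth dilution using Mueller-Hinton II; Gram-positive strains covered recent methicillin-, penicillin- and/or vancomycin-resistant clinical isolates.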

Staphylococcus sp. = experiment: as above; type: cell-based; settings: broth dilution, 18 hours at 35° C.
In short: as §1

Enterococcus sp. = experiment: as above; type: cell-based; settings: broth dilution, 18 hours at 35° C.
In short: as §1

Escherichia coli = experiment: as above; type: cell-based; settings: 18 hours at 35° C.
[2] = tested on: Staphylococcus aureus-SMITH (GC 4543); experiment: acute lethal infection in mice; type: in vivo; settings: acute lethal infection, female CD-1 mice, intraperitoneal challenge, intravenous 30 min. after infection, 7 day survival
In short: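 Survival at 7 days, pooled from three independent tests, yields ED50 values. Treatment is intravenous, 30 min after ip infection of female CD-1 mice, using an inoculum lethal to untreated controls within 24-48 hr.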

N=C1NCC(C(O)C2NC(=O)C(Cc3ccc(OC4OC(CO)C(OC5OC6COC7(OC6C(O)C5O)C5CC6CC(C5)CC7C6)C(O)C4O)cc3)NC(=O)C(Cc3ccccc3)NC(=O)CNC(=O)C(CO)NC(=O)C(C(O)C3CNC(=N)N3C3OC(CO)C(O)C(O)C3O)NC2=O)N1 (stereo not drawn) [Example 220]
Anatomical Pathology (Day 10), Heart [1]: 0 | Anatomical Pathology (Day 10), Kidney [1]: +++ | MIC Streptococcus agalactiae (GC 4564) (Streptococcus sp.): <0.06 µg/mL | MIC Streptococcus pneumoniae (ATCC 6301) (Streptococcus sp.): <0.06 µg/mL | MIC Streptococcus pneumoniae (GC 1894) (Streptococcus sp.): <0.06 µg/mL | MIC Streptococcus pneumoniae (GC 4565) (Streptococcus sp.): <0.06 µg/mL | MIC Streptococcus pyogenes (GC 4563) (Streptococcus sp.): <0.06 µg/mL | MIC Streptococcus pneumoniae (ATCC 6301) (Streptococcus sp.; inoculum 5×10^5 CFU/mL, strain ATCC 6301): <0.06 µg/mL | MIC Streptococcus pneumoniae (GC 1894) (Streptococcus sp.; inoculum 5×10^5 CFU/mL, strain GC 1894): <0.06 µg/mL | MIC Streptococcus pyogenes (GC 4563) (Streptococcus sp.; inoculum 5×10^5 CFU/mL, strain GC 4563): <0.06 µg/mL | MIC Streptococcus agalactiae (GC 4564) (Streptococcus sp.; inoculum 5×10^5 CFU/mL, strain GC 4564): <0.06 µg/mL | MIC Streptococcus pneumoniae (GC 4565) (Streptococcus sp.; inoculum 5×10^5 CFU/mL, strain GC 4565): <0.06 µg/mL | MIC Staphylococcus aureus (ATCC 29213) (Staphylococcus sp.; strain ATCC 29213): 0.5 µg/mL (≈ 0.354 µM) | MIC Staphylococcus aureus (GC 1131) (Staphylococcus sp.; strain GC 1131): 1 µg/mL (≈ 0.707 µM) | MIC Staphylococcus aureus (GC 3051) (Staphylococcus sp.; strain GC 3051): 1 µg/mL (≈ 0.707 µM) | MIC Staphylococcus aureus (GC 3053) (Staphylococcus sp.; strain GC 3053): 1 µg/mL (≈ 0.707 µM) | MIC Staphylococcus aureus (GC 4541) (Staphylococcus sp.; strain GC 4541): 1 µg/mL (≈ 0.707 µM) | MIC Staphylococcus aureus (GC 4542) (Staphylococcus sp.; strain GC 4542): 0.5 µg/mL (≈ 0.354 µM) | MIC Staphylococcus aureus-SMITH (GC 4543) (Staphylococcus sp.; strain GC 4543): 1 µg/mL (≈ 0.707 µM) | MIC Staphylococcus aureus (GC 4544) (Staphylococcus sp.; strain GC 4544): 1 µg/mL (≈ 0.707 µM) | MIC Staphylococcus aureus (GC 4545) (Staphylococcus sp.; strain GC 4545): 0.5 µg/mL (≈ 0.354 µM) | MIC Staphylococcus haemolyticus (GC 4546) (Staphylococcus sp.; strain GC 4546): 0.25 µg/mL (≈ 0.177 µM) | MIC Coagulase Negative Staphylococcus (GC 4547) (Staphylococcus sp.; strain GC 4547): 0.5 µg/mL (≈ 0.354 µM) | MIC Coagulase Negative Staphylococcus (GC 4548) (Staphylococcus sp.; strain GC 4548): 0.25 µg/mL (≈ 0.177 µM) | MIC Coagulase Negative Staphylococcus (GC 4549) (Staphylococcus sp.; strain GC 4549): 0.25 µg/mL (≈ 0.177 µM) | MIC Coagulase Negative Staphylococcus (GC 4551) (Staphylococcus sp.; strain GC 4551): 0.5 µg/mL (≈ 0.354 µM) | MIC Enterococcus avium (GC 4558) (Enterococcus sp.): 2 µg/mL (≈ 1.41 µM) | MIC Enterococcus faecalis (ATCC 29212) (Enterococcus sp.): 2 µg/mL (≈ 1.41 µM) | MIC Enterococcus faecalis (GC 2242) (Enterococcus sp.): 1 µg/mL (≈ 0.707 µM) | MIC Enterococcus faecalis (GC 2691) (Enterococcus sp.): 2 µg/mL (≈ 1.41 µM) | MIC Enterococcus faecalis (GC 3059) (Enterococcus sp.): 2 µg/mL (≈ 1.41 µM) | MIC Enterococcus faecalis (GC 4552) (Enterococcus sp.): 2 µg/mL (≈ 1.41 µM) | MIC Enterococcus faecalis (GC 4553) (Enterococcus sp.): 1 µg/mL (≈ 0.707 µM) | MIC Enterococcus faecalis (GC 4554) (Enterococcus sp.): 2 µg/mL (≈ 1.41 µM) | MIC Enterococcus faecalis (GC 6189) (Enterococcus sp.): 1 µg/mL (≈ 0.707 µM) | MIC Enterococcus faecium (GC 2243) (Enterococcus sp.): 1 µg/mL (≈ 0.707 µM) | MIC Enterococcus faecium (GC 4556) (Enterococcus sp.): 1 µg/mL (≈ 0.707 µM) | MIC Enterococcus faecium (GC 4557) (Enterococcus sp.): 1 µg/mL (≈ 0.707 µM) | MIC Enterococcus faecalis (ATCC 29212) (Enterococcus sp.; inoculum 5×10^5 CFU/mL, strain ATCC 29212): 2 µg/mL (≈ 1.41 µM) | MIC Enterococcus faecalis (GC 2242) (Enterococcus sp.; inoculum 5×10^5 CFU/mL, strain GC 2242): 1 µg/mL (≈ 0.707 µM) | MIC Enterococcus faecium (GC 2243) (Enterococcus sp.; inoculum 5×10^5 CFU/mL, strain GC 2243): 1 µg/mL (≈ 0.707 µM) | MIC Enterococcus faecalis (GC 2691) (Enterococcus sp.; inoculum 5×10^5 CFU/mL, strain GC 2691): 2 µg/mL (≈ 1.41 µM) | MIC Enterococcus faecalis (GC 3059) (Enterococcus sp.; inoculum 5×10^5 CFU/mL, strain GC 3059): 2 µg/mL (≈ 1.41 µM) | MIC Enterococcus faecalis (GC 4552) (Enterococcus sp.; inoculum 5×10^5 CFU/mL, strain GC 4552): 2 µg/mL (≈ 1.41 µM) | MIC Enterococcus faecalis (GC 4553) (Enterococcus sp.; inoculum 5×10^5 CFU/mL, strain GC 4553): 1 µg/mL (≈ 0.707 µM) | MIC Enterococcus faecalis (GC 4554) (Enterococcus sp.; inoculum 5×10^5 CFU/mL, strain GC 4554): 2 µg/mL (≈ 1.41 µM) | MIC Enterococcus faecium (GC 4556) (Enterococcus sp.; inoculum 5×10^5 CFU/mL, strain GC 4556): 1 µg/mL (≈ 0.707 µM) | MIC Enterococcus faecium (GC 4557) (Enterococcus sp.; inoculum 5×10^5 CFU/mL, strain GC 4557): 1 µg/mL (≈ 0.707 µM) | MIC Enterococcus avium (GC 4558) (Enterococcus sp.; inoculum 5×10^5 CFU/mL, strain GC 4558): 2 µg/mL (≈ 1.41 µM) | MIC Enterococcus faecalis (GC 6189) (Enterococcus sp.; inoculum 5×10^5 CFU/mL, strain GC 6189): 1 µg/mL (≈ 0.707 µM) | MIC Escherichia coli (ATCC 25922) (Escherichia coli): 32 µg/mL (≈ 22.6 µM) | MIC Escherichia coli (GC 4559) (Escherichia coli): 16 µg/mL (≈ 11.3 µM) | MIC Escherichia coli (GC 4560) (Escherichia coli): 0.5 µg/mL (≈ 0.354 µM) | median effective dose (ED50), Staphylococcus aureus-SMITH (GC 4543) [2]: 0.19 mg/kg
